Patent US6395896B2, “Pyridazine derivatives, manufacturing method and related composition” (Shiseido Co., Ltd., priority 1999, dated 2002)

Test: Colorant stabilization effect (photostabilizer, sunlight exposure)
Parameters: key to Sunlight exposure (80 MJ) Appearance: A: No change; B: No almost change; C: Yes change; key to Sunlight exposure (80 MJ) ΔE: ΔE color difference (Lab) vs. color before sunlight exposure
Outline: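 Samples exposed to sunlight (around 80 MJ); appearance change judged visually. Color difference (ΔE) measured by spectrophotometer in Lab coordinates, calculated against the same sample's color before exposure.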

[1] = Blue No. 1 0.00001 wt %, photostabilizer 0.05 wt %
[2] = Blue No. 1 0.00001 wt %, photostabilizer 0.1 wt %
[3] = Blue No. 1 0.00001 wt %, photostabilizer 0.3 wt %
[4] = Blue No. 1 0.0001 wt %, photostabilizer 0.03 wt %
[5] = Blue No. 1 0.0001 wt %, photostabilizer 0.05 wt %
[6] = Blue No. 1 0.0001 wt %, photostabilizer 0.1 wt %
[7] = Green No. 3 0.00001 wt %, photostabilizer 0.03 wt %
[8] = Green No. 3 0.00001 wt %, photostabilizer 0.1 wt %
[9] = Green No. 3 0.00001 wt %, photostabilizer 0.3 wt %
[10] = Green No. 3 0.0001 wt %, photostabilizer 0.02 wt %
[11] = Green No. 3 0.0001 wt %, photostabilizer 0.05 wt %
[12] = Green No. 3 0.0001 wt %, photostabilizer 0.1 wt %
[13] = Red No. 106 0.00001 wt % + Yellow No. 5 0.0001 wt %, photostabilizer 0.03 wt %
[14] = Red No. 106 0.00001 wt % + Yellow No. 5 0.0001 wt %, photostabilizer 0.05 wt %
[15] = Red No. 106 0.00001 wt % + Yellow No. 5 0.0001 wt %, photostabilizer 0.3 wt %
[16] = Red No. 106 0.00001 wt % + Yellow No. 203 0.0001 wt %, photostabilizer 0.05 wt %
[17] = Red No. 106 0.00001 wt % + Yellow No. 203 0.0001 wt %, photostabilizer 0.1 wt %
[18] = Red No. 106 0.00001 wt % + Yellow No. 203 0.0001 wt %, photostabilizer 0.3 wt %
[19] = Red No. 106 0.00001 wt %, photostabilizer 0.05 wt %
[20] = Red No. 106 0.00001 wt %, photostabilizer 0.1 wt %
[21] = Red No. 106 0.00001 wt %, photostabilizer 0.3 wt %
[22] = Red No. 106 0.0001 wt %, photostabilizer 0.03 wt %
[23] = Red No. 106 0.0001 wt %, photostabilizer 0.05 wt %
[24] = Red No. 106 0.0001 wt %, photostabilizer 0.1 wt %
[25] = Red No. 213 0.00001 wt % + Blue No. 1 0.00001 wt %, photostabilizer 0.03 wt %
[26] = Red No. 213 0.00001 wt % + Blue No. 1 0.00001 wt %, photostabilizer 0.05 wt %
[27] = Red No. 213 0.00001 wt % + Blue No. 1 0.00001 wt %, photostabilizer 0.1 wt %
[28] = Red No. 213 0.00001 wt %, photostabilizer 0.03 wt %
[29] = Red No. 213 0.00001 wt %, photostabilizer 0.1 wt %
[30] = Red No. 213 0.00001 wt %, photostabilizer 0.3 wt %
[31] = Red No. 213 0.0001 wt %, photostabilizer 0.03 wt %
[32] = Red No. 213 0.0001 wt %, photostabilizer 0.05 wt %
[33] = Red No. 213 0.0001 wt %, photostabilizer 0.1 wt %
[34] = Red No. 227 0.00001 wt %, photostabilizer 0.05 wt %
[35] = Red No. 227 0.00001 wt %, photostabilizer 0.1 wt %
[36] = Red No. 227 0.00001 wt %, photostabilizer 0.3 wt %

With `Oc1nncc(N2CCOCC2)c1N1CCOCC1` [4,5-Dimorpholino-3-hydroxypyridazine] the “Sunlight exposure (80 MJ) Appearance” value [1] was “A”, the “Sunlight exposure (80 MJ) ΔE” value [1] was 1.00 and the “Sunlight exposure (80 MJ) Appearance” value [2] was “A”. For the same compound, the “Sunlight exposure (80 MJ) ΔE” value [2] was 0.62, the “Sunlight exposure (80 MJ) Appearance” value [3] was “A” and the “Sunlight exposure (80 MJ) ΔE” value [3] was 0.25. For the same compound, the “Sunlight exposure (80 MJ) Appearance” value [4] was “A”, the “Sunlight exposure (80 MJ) ΔE” value [4] was 1.25 and the “Sunlight exposure (80 MJ) Appearance” value [5] was “A”. For the same compound, the “Sunlight exposure (80 MJ) ΔE” value [5] was 1.11, the “Sunlight exposure (80 MJ) Appearance” value [6] was “A” and the “Sunlight exposure (80 MJ) ΔE” value [6] was 0.70. For the same compound, the “Sunlight exposure (80 MJ) Appearance” value [7] was “A”, the “Sunlight exposure (80 MJ) ΔE” value [7] was 0.56 and the “Sunlight exposure (80 MJ) Appearance” value [8] was “A”. For the same compound, the “Sunlight exposure (80 MJ) ΔE” value [8] was 0.08, the “Sunlight exposure (80 MJ) Appearance” value [9] was “A” and the “Sunlight exposure (80 MJ) ΔE” value [9] was 0.02. The “Sunlight exposure (80 MJ) Appearance” value [10] was “A”, the “Sunlight exposure (80 MJ) ΔE” value [10] was 0.75 and the “Sunlight exposure (80 MJ) Appearance” value [11] was “A”. The “Sunlight exposure (80 MJ) ΔE” value [11] was 0.31, the “Sunlight exposure (80 MJ) Appearance” value [12] was “A” and the “Sunlight exposure (80 MJ) ΔE” value [12] was 0.06. The “Sunlight exposure (80 MJ) Appearance” value [13] was “A”, the “Sunlight exposure (80 MJ) ΔE” value [13] was 0.97 and the “Sunlight exposure (80 MJ) Appearance” value [14] was “A”. The “Sunlight exposure (80 MJ) ΔE” value [14] was 0.55, the “Sunlight exposure (80 MJ) Appearance” value [15] was “A” and the “Sunlight exposure (80 MJ) ΔE” value [15] was 0.12. The “Sunlight exposure (80 MJ) Appearance” value [16] was “A”, the “Sunlight exposure (80 MJ) ΔE” value [16] was 0.77 and the “Sunlight exposure (80 MJ) Appearance” value [17] was “A”. For the same compound, the “Sunlight exposure (80 MJ) ΔE” value [17] was 0.25, the “Sunlight exposure (80 MJ) Appearance” value [18] was “A” and the “Sunlight exposure (80 MJ) ΔE” value [18] was 0.11. The “Sunlight exposure (80 MJ) Appearance” value [19] was “A”, the “Sunlight exposure (80 MJ) ΔE” value [19] was 1.01 and the “Sunlight exposure (80 MJ) Appearance” value [20] was “A”. For the same compound, the “Sunlight exposure (80 MJ) ΔE” value [20] was 0.55, the “Sunlight exposure (80 MJ) Appearance” value [21] was “A” and the “Sunlight exposure (80 MJ) ΔE” value [21] was 0.12. The “Sunlight exposure (80 MJ) Appearance” value [22] was “A”, the “Sunlight exposure (80 MJ) ΔE” value [22] was 0.95 and the “Sunlight exposure (80 MJ) Appearance” value [23] was “A”. The “Sunlight exposure (80 MJ) ΔE” value [23] was 0.82, the “Sunlight exposure (80 MJ) Appearance” value [24] was “A” and the “Sunlight exposure (80 MJ) ΔE” value [24] was 0.43. For the same compound, the “Sunlight exposure (80 MJ) Appearance” value [25] was “A”, the “Sunlight exposure (80 MJ) ΔE” value [25] was 1.21 and the “Sunlight exposure (80 MJ) Appearance” value [26] was “A”. For the same compound, the “Sunlight exposure (80 MJ) ΔE” value [26] was 0.97, the “Sunlight exposure (80 MJ) Appearance” value [27] was “A” and the “Sunlight exposure (80 MJ) ΔE” value [27] was 0.73. The “Sunlight exposure (80 MJ) Appearance” value [28] was “B”, the “Sunlight exposure (80 MJ) ΔE” value [28] was 1.24 and the “Sunlight exposure (80 MJ) Appearance” value [29] was “A”. For the same compound, the “Sunlight exposure (80 MJ) ΔE” value [29] was 0.45, the “Sunlight exposure (80 MJ) Appearance” value [30] was “A” and the “Sunlight exposure (80 MJ) ΔE” value [30] was 0.12. The “Sunlight exposure (80 MJ) Appearance” value [31] was “B”, the “Sunlight exposure (80 MJ) ΔE” value [31] was 1.11 and the “Sunlight exposure (80 MJ) Appearance” value [32] was “A”. For the same compound, the “Sunlight exposure (80 MJ) ΔE” value [32] was 0.78, the “Sunlight exposure (80 MJ) Appearance” value [33] was “A” and the “Sunlight exposure (80 MJ) ΔE” value [33] was 0.32. The “Sunlight exposure (80 MJ) Appearance” value [34] was “A”, the “Sunlight exposure (80 MJ) ΔE” value [34] was 0.69 and the “Sunlight exposure (80 MJ) Appearance” value [35] was “A”. The “Sunlight exposure (80 MJ) ΔE” value [35] was 0.32, the “Sunlight exposure (80 MJ) Appearance” value [36] was “A” and the “Sunlight exposure (80 MJ) ΔE” value [36] was 0.11. The “Sunlight exposure (80 MJ) Appearance” value (Red No. 227 0.0001 wt % + Yellow No. 5 0.0001 wt %, photostabilizer 0.03 wt %) was “A”.
